The values that follow are results of earlier work, collected in US7102020B2, “Total synthesis of daurichromenic acid” (priority 2002, dated 2006).

Molecules are shown by their SMILES.

This data set deals with HIV. Conditions: acutely infected H9 cells.

In the case of `CC(C)=CCC/C(C)=C/CC[C@@]1(C)C=Cc2c(cc(C)c(C(=O)O)c2O)O1` [Daurichromenic acid], the “anti-HIV activity EC50” value was 5.67 ng/mL.
